Test results: patent publication EP4260850A1, “PHARMACEUTICAL COMPOSITION COMPRISING PTEROSIN COMPOUND AND DERIVATIVE THEREOF AS ACTIVE INGREDIENT FOR PREVENTION OR TREATMENT OF PKA-RELATED DISEASE” (GHPharm Co., Ltd., priority 2020, dated 2022)
Read-outs that look alike come from different tables or passages of the source. Values belong to the molecule of their own block, whether it stands above or below them.

Tests used:
NIH3T3 cells = experiment: MTT assay, cytotoxicity in normal cells; assay type: cell-based; details: for cytotoxicity: normal cells (NIH3T3), result in words
Description: (§1) NIH3T3 cells, as a mouse fibroblast cell line, and B16F10 cells, as a mouse melanoma cell line, were dispensed into a 96 well plate at 2×10^3 cells/well, and cultured in DMEM supplemented with 10% fetal bovine serum (FBS) at 5% CO2 and 37°C. Compounds (pterosin A, pterosin B, pterosin C, pterosin D, pterosin P, pterosin Z, pteroside A, pteroside B and pteroside Z) were treated at different concentrations and then cultured for 48 hours. Thereafter, MTT solution (5 mg/ml) was added to each well at a concentration of […] and incubated at 37°C for 4 hours. […] After incubation for 10 minutes, optical density was measured at 550 nm by using a Microplate Reader (Molecular Devices, Spectra Max, USA). An optical density is an index representing the number of surviving cells and is calculated by the formula below, and reproducibility was confirmed through three experiments. Cell proliferation rate (%) = OD550 (sample)/OD550; (control) × 100 [formula]
(§2) As described in the experimental method, mouse embryo fibroblast cell-line (NIH3T3) as a normal cell and Mouse melanoma cell-line (B16F10) as a cancer cell were cultured in a 96-well plate, and each compound was added to the cell medium at each concentration and cultured for 48 hours, MTT was then administered, and the optical density was measured at 550 nm by using a microplate reader. The optical density is an index representing the number of surviving cells and calculated by the following formula, and reproducibility was confirmed through three experiments. Cell proliferation rate (%) = OD550 (sample)/OD550; (control) × 100 [formula]
(§3) Then, the LD50 (Lethal Dose 50) value was calculated based on the change in cell proliferation rate.

CREB [1] = experiment: Western blot for CREB phosphorylation level in astrocytes; assay type: cell-based; details: FIG. 2
Description: (§4) Western blot analysis was performed by using the following method. Cells were lysed in RIPA buffer (20 mM Tris-Cl pH 7.4, 1 mM EDTA, 150 mM NaCl, 1% Triton X-100, 1 mM EGTA, 1 µM Na3VO4, 2.5 mM sodium pyrophosphate, 1 µM phenylmethylsulfonyl fluoride, 1 ug/ml leupeptin). The protein concentration was calculated by using BCA Protein Assay Reagent (BioRad, Hercules, CA, USA). Protein samples were separated by SDS-PAGE and transferred to polyvinylidene difluoride (PVDF) membranes (Millipore, Bedford, MA, USA). Membranes were incubated overnight at 4 °C with primary antibodies followed by HRP-conjugated goat anti-rabbit IgG (1:5,000; Pierce; Carlsbad, CA, USA). The used primary antibodies were actin (sigma; 1:1000), p-CREB (Cell signaling; 1:1000), tubulin (Cell signaling; 1:1000), p-PKA (Cell signaling; 1:1000), p -trk (Cell signaling; 1:1000) and BDNF (Abcam; 1:1000). All membranes were visualized by using a UVP Autochemi Darkroom Imaging System (Utra-Violet Products Ltd. UK) and Immobilon Crescendo Western HRP Substrate or Luminata Forte Western HRP Substrate (Millipore, USA).

B16F10 cells = experiment: MTT assay, cytotoxicity in cancer cells; assay type: cell-based; details: for cytotoxicity: cancer cells (B16F10), result in words
Description: as §1, §2, §3

CREB [2] = experiment: Western blot for CREB phosphorylation level in neurons; assay type: cell-based; details: for CREB phosphorylation: 10 µM, FIG. 2, against positive control amx; for phosphorylation of CREB: FIG. 8, compared with pterosin B
Description: as §4

hippocampal slice = experiment: Electrophysiology in hippocampal slices (fEPSP, LTP); set-up: species or system mouse; details: theta-burst stimulation, FIG. 10
Description: • 1. The brain of a 4-month-old mouse was placed on an ice-cold dissection buffer, and a 300 µm-thick sagittal hippocampal slice was prepared by using a vibratome (dissection buffer: contents in mM: […], 25 NaHCO3, 5 KCl, 1.25 NaH2PO4, 0.5 CaCl2, 3.5 MgSO4, 10 D-glucose, 1.25 L-ascorbic acid and 2 Na-pyruvate bubbled with 95% O2/5% CO2). • 2. Slices were recovered at 32°C for 1 hour in normal ACSF (ACSF: mM: 125 NaCl, 2.5 KCl, 1.25 NaH2PO4, 25 NaHCO3, 10 glucose, 2.5 CaCl2 and 1.3 MgCl2 oxygen in 95% O2/5% CO2). • 3. During recording, the slices were moved to a chamber submerged in ACSF at 28°C, and ACSF saturated with 95% O2/5% CO2 was continuously perfused (2ml/min). A Micropipette for stimulation and recording was fabricated by using boron acid glass capillaries (Harvard Instruments) and a micropipette electrode puller. • 4. For input/output, paired-pulse ratio, and long-term potentiation (LTP) experiments, an ACSF-filled pipette (resistance: […]) was used to test the hippocampus. A field excitatory post-synaptic potential (fEPSP) was measured in the CA1 region. The fEPSP signal was amplified by using Multiclamp 700B (Molecular Devices) and digitized by using Digidata 1440A (Molecular Devices). […] The pair-pulse ratio was measured after giving the pair stimulation at intervals of 25, 50, 75, 100, 200, and 300 ms . • 6. […]

nerve cells (Neuron) = experiment: Neuron proliferation, differentiation and regeneration promoting ability (microscopy); assay type: cell-based; details: against control group, FIG. 11
Description: The abilities of pterosin compounds to promote nerve cell proliferation, differentiation and regeneration were evaluated.

[3] = Blood-brain barrier permeability (Stirwell PAMPA sandwich, BBB-1-lipid); details: for Papp at 4 h: PAMPA, pH 7.4, Pe Average
Description: Progesterone was used as a positive control and ranitidine was used as a negative control: • (1) A donor buffer at pH 7.4 was dispensed to a deep well plate and mixed with a test substance. • (2) The donor buffer was dispensed into a U.V plate by 150ul per well, and the optical density was measured: blank value. • (3) The mixture was dispensed in the deep well plate into the U.V plate by 150ul per well, and then the optical density was measured: blank value. • (4) 200ul of the mixture in step 1) was dispensed into the donor plate of the Stirwell PAMPA sandwich. • (5) The membrane of the acceptor plate of the Stirwell PAMPA sandwich was coated with 5 ul of BBB-1-lipid. • (6) A brain sink buffer was dispensed into each well on the acceptor plate by 200 ul. • (7) The acceptor plate and donor plate were combined and incubated at 25°C for 4 hours. • (8) After 4 hours of incubation, the acceptor plate and donor plate were separated, and 150 µl each was transferred to a UV plate, and the optical density was measured.

[4] = Cancer cell B16F10, cultured 48 hours, MTT, OD 550 nm
[5] = Normal cell NIH3T3, cultured 48 hours, MTT, OD 550 nm
[6] = pH 7.4, 25°C, 4 hours, controls 50 µM, Pterosin D 12.5 µM

SMILES: Cc1cc2c(c(C)c1CCO)C(=O)[C@H](C)C2 [Compound 2, (2R)-pterosin B]
cytotoxicity (NIH3T3 cells): little cytotoxicity
CREB phosphorylation (CREB [1]): no effect
LD50 (B16F10 cells; [4]): >5,000 µM
cytotoxicity (B16F10 cells): little cytotoxicity
CREB phosphorylation (CREB [2]): did not increase CREB phosphorylation at all

SMILES: Cc1cc2c(c(C)c1CCO)C(=O)C(C)(C)C2 [Compound 3, pterosin Z]
cytotoxicity (NIH3T3 cells): weak cytotoxicity
CREB phosphorylation (CREB [1]): no effect
cytotoxicity (B16F10 cells): weak cytotoxicity
CREB phosphorylation (CREB [2]): did not increase CREB phosphorylation at all

SMILES: Cc1c(CCO)c(CO)cc2c1C(=O)[C@@H](C)C2 [Compound 4, (2S)-pterosin P]
LD50 (NIH3T3 cells; [5]): >5,000 µM
cytotoxicity (NIH3T3 cells): little cytotoxicity
CREB phosphorylation (CREB [1]): no effect
LD50 (B16F10 cells; [4]): >5,000 µM
cytotoxicity (B16F10 cells): little cytotoxicity
CREB phosphorylation (CREB [2]): did not increase CREB phosphorylation at all

SMILES: Cc1cc2c(c(C)c1CCO)C(=O)C(C)(C)[C@@H]2O [Compound 5, (3R)-pterosin D]
LD50 (NIH3T3 cells; [5]): >5,000 µM
cytotoxicity (NIH3T3 cells): little cytotoxicity
hippocampus mossy fiber-CA1 LTP (hippocampal slice): particularly strong
CREB phosphorylation (CREB [1]): no effect
length of nerve cells (nerve cells (Neuron)): significantly longer
LD50 (B16F10 cells; [4]): >5,000 µM
cytotoxicity (B16F10 cells): little cytotoxicity
CREB phosphorylation (CREB [2]): significantly increased
phosphorylation of CREB (CREB [2]): statistically significantly increased
Papp at 4 h [3, 6]: 20.9 ×10⁻⁶ cm/s
Pe 1st [3, 6]: 19.74 10^-6cm/sec
Pe 2nd [3, 6]: 20.20 10^-6cm/sec
Pe 3rd [3, 6]: 22.73 10^-6cm/sec
BCS code, CNS +/- (spreadability to CNS) ([3]; pH 7.4, controls 50 µM, Pterosin D 12.5 µM): CNS+ (>10)

SMILES: Cc1cc2c(c(C)c1CCO)C(=O)[C@](C)(CO)C2 [Compound 6, (2S)-pterosin A]
LD50 (NIH3T3 cells; [5]): >5,000 µM
CREB phosphorylation (CREB [1]): no effect
cytotoxicity (B16F10 cells): weak cytotoxicity only in cancer cells
CREB phosphorylation (CREB [2]): significantly increased
phosphorylation of CREB (CREB [2]): statistically significantly increased

SMILES: Cc1cc2c(c(C)c1CCO)C(=O)[C@H](C)[C@H]2O [Compound 7, (2R,3R)-pterosin C]
LD50 (NIH3T3 cells; [5]): >5,000 µM
LD50 (B16F10 cells; [4]): >5,000 µM

SMILES: Cc1cc2c(c(C)c1CCO)C(=O)[C@@H](C)[C@H]2O [Compound 8, (2S,3R)-pterosin C]
LD50 (NIH3T3 cells; [5]): >5,000 µM
LD50 (B16F10 cells; [4]): >5,000 µM

SMILES: Cc1cc2c(c(C)c1CCO[C@@H]1O[C@H](CO)[C@@H](O)[C@H](O)[C@H]1O)C(=O)[C@H](C)C2 [Compound 9, (2R)-pteroside B]
LD50 (NIH3T3 cells): >5,000 µM
LD50 (B16F10 cells): >5,000 µM

SMILES: Cc1cc2c(c(C)c1CCO[C@@H]1O[C@H](CO)[C@@H](O)[C@H](O)[C@H]1O)C(=O)C(C)(C)C2 [Compound 10, pteroside Z]
LD50 (NIH3T3 cells): >5,000 µM
LD50 (B16F10 cells): >5,000 µM

SMILES: Cc1cc2c(c(C)c1CCO[C@@H]1O[C@H](CO)[C@@H](O)[C@H](O)[C@H]1O)C(=O)[C@](C)(CO)C2 [Compound 11, (2S)-pteroside A]
LD50 (NIH3T3 cells): >5,000 µM
LD50 (B16F10 cells): >5,000 µM

Papp at 4 h [3]: 28.8 ×10⁻⁶ cm/s
SMILES: CC(=O)[C@H]1CC[C@H]2[C@@H]3CCC4=CC(=O)CC[C@]4(C)[C@H]3CC[C@]12C [Progesterone, reference compound]

SMILES: Cc1cc2c(c(C)c1CCO)C(=O)[C@@H](C)[C@@H]2O [pterosin C]
hippocampus mossy fiber-CA1 LTP (hippocampal slice): particularly strong
CREB phosphorylation (CREB [1]): no effect
CREB phosphorylation (CREB [2]): significantly increased
phosphorylation of CREB (CREB [2]): statistically significantly increased
